Reference: PMC9571063 (Molecules, 2022)
pIC50: −log10 of the molar value. Where a name gives a salt, the structure may show the parent alone. Read-outs that look alike come from different tables or passages of the source.

Columns and labels:
[1] = cytotoxic assay, nuclei count (Hoechst, HCS); type: cell-based; details: human, Caco-2 cells (colorectal adenocarcinoma); 48 h treatment; read-out: Cytotoxic studies IC50 Caco2
[2] = cytotoxic assay, nuclei count (Hoechst, HCS); type: cell-based, human; details: human, human skin fibroblasts (non-cancerous reference cells); 48 h treatment; some cells add low/moderate/high amplitude; read-out: Cytotoxic studies IC50 Fibroblasts
Procedure: (§1) To complete our study, we performed a cytotoxicity screening of the 15 molecules, investigating 7 representative cancer cell lines. The compound’s effect on cell viability was evaluated on Huh-7 (hepatocellular carcinoma), CaCo2, HCT-116 (colorectal adenocarcinoma), MCF7, MDA-MB231, MDA-MB468 (breast carcinoma), PC3 (prostate carcinoma) and NCI-H727 (lung carcinoid). Human skin fibroblasts were used as reference for non-cancerous cells. Roscovitine, Doxorubicin and Taxol were used as positive controls. The cells were treated for 48 h with 25 µM compounds and fixed in cooled 90% ethanol/5% acetic acid for 20 min. The nuclei were stained with Hoechst 33342 and counted using HCS technology.
(§2) HuH7, CaCo-2, MDA-MB-231, HCT116, PC3, MCF7 and NCI-H727 cancer cell lines were obtained from the ECACC collection (Porton Down, UK). Cells were grown at 37 °C, 5% CO2 in ECACC recommended media: DMEM for HuH7, MDA-MB-231 and fibroblast, EMEM for MCF7and CaCo-2, McCoy’s for HCT116 and RPMI for PC3 and NCI-H727. All culture media were supplemented with 10% of FBS, 1% of penicillin-streptomycin and 2 mM glutamine.
(§3) Chemicals were solubilized in DMSO at a concentration of 10 mM (stock solution) and diluted in culture medium to the desired final concentrations.
(§4) The cytotoxic assay of chemical was performed at 25 µM. Cells were plated in 96 wells plates (4000 cells/well). Twenty-four hours after seeding, cells were exposed to chemicals. After 48 h of treatment, cells were washed in PBS and fixed in cooled 90% ethanol/5% acetic acid for 20 min and the nuclei were stained with Hoechst 33342 (B2261 Sigma). Image acquisition and analysis were performed using a CellomicsArrayScan VTI/HCS Reader (ThermoScientific, Waltham, MA, USA). The survival percentages were calculated as the percentage of cell number after compound treatment over cell number after DMSO treatment.

[3] = cytotoxic assay, nuclei count (Hoechst, HCS); type: cell-based; details: human, MCF7 cells (breast carcinoma); 48 h treatment; read-out: Cytotoxic studies IC50 MCF7
Procedure: as §1, §2, §3, §4

Hs_PIM1 = target: T1, Hs_PIM1 (Homo sapiens, UniProt P11309); assay: ADP-Glo kinase assay, primary screen; type: biochemical; details: n=2, read-out: % of residual activity Hs_PIM1
T1 construct: host or cells: Sf9 insect cells (baculovirus)

Hs_GSK3β = target: T2, Hs_GSK3β (Homo sapiens, UniProt P49841); assay: ADP-Glo kinase assay, primary screen; type: biochemical; details: n=2, read-out: % of residual activity Hs_GSK3β
T2 construct: host or cells: Sf9 insect cells (baculovirus)

HsDYRK1A = target: T3, HsDYRK1A (Homo sapiens, UniProt Q13627); assay: ADP-Glo kinase assay; type: biochemical; details: for remaining activity at 1 µM / remaining activity at 10 µM: n=2, read-out: % of residual activity Hs_DYRK1A
T3 construct: host or cells: Sf9 insect cells (baculovirus)

[4] = cytotoxic assay, nuclei count (Hoechst, HCS); type: cell-based; details: human, 48 h treatment
Procedure: as §1, §2, §3
as §4, with “The cytotoxic assay of chemical was performed at 25 µM.” left out

Hs_CDK5/p25 = target: T4, Hs_CDK5/p25 (Homo sapiens, UniProt Q00535); assay: ADP-Glo kinase assay, primary screen; type: biochemical; details: n=2, read-out: % of residual activity Hs_CDK5/p25
T4 construct: host or cells: bacteria

Hs_HASPIN = target: T5, Hs_HASPIN (Homo sapiens, UniProt Q8TF76); assay: ADP-Glo kinase assay, primary screen; type: biochemical; details: n=2, read-out: % of residual activity Hs_HASPIN
T5 construct: host or cells: bacteria
T5 sequence (Q8TF76 1-798): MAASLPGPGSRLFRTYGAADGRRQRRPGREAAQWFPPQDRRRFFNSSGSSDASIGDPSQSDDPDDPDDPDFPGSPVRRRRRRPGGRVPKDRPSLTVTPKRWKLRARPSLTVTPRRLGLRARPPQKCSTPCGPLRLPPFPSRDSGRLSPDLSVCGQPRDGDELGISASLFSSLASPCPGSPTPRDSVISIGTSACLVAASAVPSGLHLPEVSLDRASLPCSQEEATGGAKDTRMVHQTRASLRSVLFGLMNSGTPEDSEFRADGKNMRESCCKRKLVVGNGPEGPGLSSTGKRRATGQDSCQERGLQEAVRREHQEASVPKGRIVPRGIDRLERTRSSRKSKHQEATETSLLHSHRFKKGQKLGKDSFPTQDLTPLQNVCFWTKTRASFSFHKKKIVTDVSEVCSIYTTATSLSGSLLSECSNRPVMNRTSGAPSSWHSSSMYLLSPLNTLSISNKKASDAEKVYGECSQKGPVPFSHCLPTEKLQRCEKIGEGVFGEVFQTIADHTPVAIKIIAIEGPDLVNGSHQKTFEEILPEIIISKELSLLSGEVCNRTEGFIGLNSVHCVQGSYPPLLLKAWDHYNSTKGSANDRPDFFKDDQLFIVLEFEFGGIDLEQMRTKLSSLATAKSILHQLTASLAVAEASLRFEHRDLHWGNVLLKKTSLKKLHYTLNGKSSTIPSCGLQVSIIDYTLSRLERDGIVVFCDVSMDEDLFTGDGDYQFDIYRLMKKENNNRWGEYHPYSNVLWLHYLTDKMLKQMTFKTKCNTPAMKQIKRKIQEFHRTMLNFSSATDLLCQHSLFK

MmCLK1 = target: T6, MmCLK1 (Mus musculus, UniProt P22518); assay: ADP-Glo kinase assay; type: biochemical; details: for remaining activity at 1 µM / remaining activity at 10 µM: n=2, read-out: % of residual activity Mm_CLK1
T6 construct: host or cells: bacteria

Hs_CK1ε = target: T7, Hs_CK1ε (Homo sapiens, UniProt P49674); assay: ADP-Glo kinase assay, primary screen; type: biochemical; details: n=2, read-out: % of residual activity Hs_CK1ε
T7 construct: host or cells: Sf9 insect cells (baculovirus)

Rn_DYRK1A = target: T8, Rn_DYRK1A (Rattus norvegicus, UniProt Q63470); assay: ADP-Glo kinase assay, primary screen; type: biochemical; details: n=2, read-out: % of residual activity Rn_DYRK1A
T8 construct: host or cells: bacteria

[5] = cytotoxic assay, nuclei count (Hoechst, HCS); type: cell-based; details: human, HuH7 cells (hepatocellular carcinoma); 48 h treatment; read-out: Cytotoxic studies IC50 HuH7
[6] = cytotoxic assay, nuclei count (Hoechst, HCS); type: cell-based; details: human, MDA-MB-231 cells (breast carcinoma); 48 h treatment; read-out: Cytotoxic studies IC50 MDA-MB-231
Hs_CDK9/CyclinT = target: T9, Hs_CDK9/CyclinT (Homo sapiens, UniProt P50750); assay: ADP-Glo kinase assay, primary screen; type: biochemical; details: n=2, read-out: % of residual activity Hs_CDK9/CyclinT
T9 construct: host or cells: Sf9 insect cells (baculovirus)

[7] = HCT116 cells (colorectal adenocarcinoma), read-out: Cytotoxic studies IC50 HCT116
[8] = MDA-MB-468 cells (breast carcinoma), read-out: Cytotoxic studies IC50 MDA-MB-468

T4 sequence (Q00535 whole entry): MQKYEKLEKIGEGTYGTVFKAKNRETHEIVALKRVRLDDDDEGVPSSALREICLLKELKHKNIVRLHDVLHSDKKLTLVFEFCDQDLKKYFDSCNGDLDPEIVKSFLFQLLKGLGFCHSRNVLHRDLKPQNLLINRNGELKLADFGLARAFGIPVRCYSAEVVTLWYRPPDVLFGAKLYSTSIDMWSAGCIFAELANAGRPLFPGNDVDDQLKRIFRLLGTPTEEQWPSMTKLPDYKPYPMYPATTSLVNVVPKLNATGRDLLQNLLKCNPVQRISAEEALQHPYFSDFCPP
T4 sequence (Q15078 99-307 partner limits assumed): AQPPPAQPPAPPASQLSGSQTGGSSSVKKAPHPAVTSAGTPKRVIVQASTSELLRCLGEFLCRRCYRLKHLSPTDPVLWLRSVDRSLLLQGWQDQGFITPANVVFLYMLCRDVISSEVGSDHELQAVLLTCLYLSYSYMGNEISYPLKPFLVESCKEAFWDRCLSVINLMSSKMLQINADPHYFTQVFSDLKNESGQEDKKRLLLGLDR
T1 sequence (P11309 whole entry): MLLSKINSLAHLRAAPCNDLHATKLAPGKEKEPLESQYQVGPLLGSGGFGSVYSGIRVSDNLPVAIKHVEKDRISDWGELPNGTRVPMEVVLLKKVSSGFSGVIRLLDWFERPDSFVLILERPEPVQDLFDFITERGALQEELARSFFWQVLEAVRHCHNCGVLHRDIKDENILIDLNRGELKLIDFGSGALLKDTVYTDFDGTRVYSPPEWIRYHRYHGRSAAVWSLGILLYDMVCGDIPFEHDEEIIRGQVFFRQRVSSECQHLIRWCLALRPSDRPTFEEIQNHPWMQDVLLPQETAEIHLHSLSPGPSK
T9 sequence (P50750 whole entry): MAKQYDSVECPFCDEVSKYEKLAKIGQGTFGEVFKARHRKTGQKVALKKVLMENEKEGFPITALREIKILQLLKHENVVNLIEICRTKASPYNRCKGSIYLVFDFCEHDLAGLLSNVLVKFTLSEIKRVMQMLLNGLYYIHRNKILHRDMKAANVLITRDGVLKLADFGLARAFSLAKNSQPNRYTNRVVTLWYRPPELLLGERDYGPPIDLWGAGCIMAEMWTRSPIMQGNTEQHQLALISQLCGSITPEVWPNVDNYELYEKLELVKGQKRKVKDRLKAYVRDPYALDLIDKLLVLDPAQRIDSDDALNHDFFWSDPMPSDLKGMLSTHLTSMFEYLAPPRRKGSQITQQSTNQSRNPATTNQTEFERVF
T9 sequence (O60563 whole entry partner): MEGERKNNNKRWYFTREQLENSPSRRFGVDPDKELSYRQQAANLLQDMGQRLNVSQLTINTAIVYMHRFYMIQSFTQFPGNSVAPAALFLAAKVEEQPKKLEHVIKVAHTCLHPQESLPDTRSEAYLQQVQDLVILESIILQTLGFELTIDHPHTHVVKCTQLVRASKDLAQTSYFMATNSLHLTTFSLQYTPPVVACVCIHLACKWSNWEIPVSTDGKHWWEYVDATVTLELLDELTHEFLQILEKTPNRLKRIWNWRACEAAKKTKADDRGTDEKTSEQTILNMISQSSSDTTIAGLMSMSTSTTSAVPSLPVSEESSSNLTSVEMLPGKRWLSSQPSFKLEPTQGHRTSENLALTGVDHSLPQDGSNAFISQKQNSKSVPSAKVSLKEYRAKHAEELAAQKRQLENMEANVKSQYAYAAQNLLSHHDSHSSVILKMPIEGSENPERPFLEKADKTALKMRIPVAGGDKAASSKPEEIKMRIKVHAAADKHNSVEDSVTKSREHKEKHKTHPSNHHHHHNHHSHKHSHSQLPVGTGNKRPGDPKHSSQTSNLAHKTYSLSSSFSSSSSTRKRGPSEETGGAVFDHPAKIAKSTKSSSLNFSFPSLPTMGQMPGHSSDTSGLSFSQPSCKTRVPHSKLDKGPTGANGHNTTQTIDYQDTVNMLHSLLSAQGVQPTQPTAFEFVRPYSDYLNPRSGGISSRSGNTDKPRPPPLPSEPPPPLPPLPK
T6 sequence (P22518 whole entry): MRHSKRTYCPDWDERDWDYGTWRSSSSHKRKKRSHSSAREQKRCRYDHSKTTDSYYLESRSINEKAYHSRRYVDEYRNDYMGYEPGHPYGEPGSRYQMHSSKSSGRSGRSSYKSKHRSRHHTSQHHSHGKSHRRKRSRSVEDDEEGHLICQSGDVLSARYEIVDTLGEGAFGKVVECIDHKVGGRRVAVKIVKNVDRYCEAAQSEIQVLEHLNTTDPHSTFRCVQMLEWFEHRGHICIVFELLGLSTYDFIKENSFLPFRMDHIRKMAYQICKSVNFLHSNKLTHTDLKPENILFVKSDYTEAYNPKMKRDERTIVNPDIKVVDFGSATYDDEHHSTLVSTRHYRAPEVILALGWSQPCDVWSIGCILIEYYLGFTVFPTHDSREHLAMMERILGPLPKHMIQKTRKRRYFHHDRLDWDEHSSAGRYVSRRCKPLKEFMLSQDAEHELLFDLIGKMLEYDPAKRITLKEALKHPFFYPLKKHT
T2 sequence (P49841 whole entry): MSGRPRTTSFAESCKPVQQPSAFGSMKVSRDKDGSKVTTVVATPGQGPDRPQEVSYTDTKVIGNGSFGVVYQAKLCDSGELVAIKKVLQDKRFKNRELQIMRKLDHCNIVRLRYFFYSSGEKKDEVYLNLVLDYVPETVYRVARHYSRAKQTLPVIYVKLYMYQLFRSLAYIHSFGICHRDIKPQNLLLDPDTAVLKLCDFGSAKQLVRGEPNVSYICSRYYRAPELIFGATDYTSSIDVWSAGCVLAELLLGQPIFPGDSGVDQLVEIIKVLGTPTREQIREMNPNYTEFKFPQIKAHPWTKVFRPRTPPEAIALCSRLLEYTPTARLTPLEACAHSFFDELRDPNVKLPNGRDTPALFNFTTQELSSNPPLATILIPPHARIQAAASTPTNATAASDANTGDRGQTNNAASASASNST
T7 sequence (P49674 whole entry): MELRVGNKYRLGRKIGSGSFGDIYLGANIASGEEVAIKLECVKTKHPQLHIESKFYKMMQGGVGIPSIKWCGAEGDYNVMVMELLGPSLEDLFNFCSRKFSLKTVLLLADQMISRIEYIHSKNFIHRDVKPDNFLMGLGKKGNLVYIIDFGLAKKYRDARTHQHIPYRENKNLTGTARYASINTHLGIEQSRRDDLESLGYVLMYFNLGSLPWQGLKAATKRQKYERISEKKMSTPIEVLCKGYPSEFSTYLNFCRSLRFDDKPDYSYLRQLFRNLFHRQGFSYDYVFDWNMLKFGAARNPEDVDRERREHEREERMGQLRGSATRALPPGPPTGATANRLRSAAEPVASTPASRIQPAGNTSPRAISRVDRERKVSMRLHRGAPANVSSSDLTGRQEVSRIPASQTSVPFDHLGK

Row | SMILES | IC50 at 48 h [1] [µM] | IC50 at 48 h [2] [µM] | IC50 at 48 h [3] [µM] | remaining activity at 1 µM (Hs_PIM1) [%] | remaining activity at 10 µM (Hs_PIM1) [%] | remaining activity at 1 µM (Hs_GSK3β) [%] | remaining activity at 10 µM (Hs_GSK3β) [%] | remaining activity at 1 µM (HsDYRK1A) [%] | remaining activity at 10 µM (HsDYRK1A) [%] | IC50 at 48 h [4, 7] [µM] | IC50 at 48 h [4, 8] [µM] | remaining activity at 1 µM (Hs_CDK5/p25) [%] | remaining activity at 10 µM (Hs_CDK5/p25) [%] | remaining activity at 1 µM (Hs_HASPIN) [%] | remaining activity at 10 µM (Hs_HASPIN) [%] | remaining activity at 1 µM (MmCLK1) [%] | remaining activity at 10 µM (MmCLK1) [%] | remaining activity at 1 µM (Hs_CK1ε) [%] | remaining activity at 10 µM (Hs_CK1ε) [%] | remaining activity at 1 µM (Rn_DYRK1A) [%] | also measured
1 | CC(C)(C)OC(=O)N[C@H]1CC[C@@H](n2cc(COc3cccc4cnc(Nc5cccc(Cl)c5)nc34)nn2)CC1 [15a, tert-Butyl ((cis)-4-(4-(((2-((3-chlorophenyl)amino)quinazolin-8-yl)oxy)methyl)-1H-1,2,3-triazol-1-yl)cyclohexyl)carbamate] | > 25 | > 25 | 23 | 86 | 74 | ≥ 100 | 86 | 95 | 63 | 7 | 18 | ≥ 100 | 96 | 92 | 74 | 98 | 60 | ≥ 100 | 97 | ≥ 100 | remaining activity at 10 µM (Rn_DYRK1A): 97%; IC50 at 48 h [5]: 7 µM; IC50 at 48 h [6]: 3 µM; remaining activity at 1 µM (Hs_CDK9/CyclinT): 64%; remaining activity at 10 µM (Hs_CDK9/CyclinT): 55%
2 | CC(C)(C)OC(=O)N[C@H]1CC[C@@H](n2cc(COc3cccc4cnc(Nc5cc(Cl)cc(Cl)c5)nc34)nn2)CC1 [15b, tert-Butyl ((cis)-4-(4-(((2-((3,5-dichlorophenyl)amino)quinazolin-8-yl)oxy)methyl)-1H-1,2,3-triazol-1-yl)cyclohexyl)carbamate] | 21 | > 25 | > 25 | 75 | 73 | 93 | 57 | ≥ 100 | 74 | > 25 | > 25 | ≥ 100 | 68 | 89 | 58 | 96 | 73 | ≥ 100 | 81 | 95 | remaining activity at 10 µM (Rn_DYRK1A): ≥ 100%; IC50 at 48 h [5]: 20 µM; IC50 at 48 h [6]: 8 µM; remaining activity at 1 µM (Hs_CDK9/CyclinT): 92%; remaining activity at 10 µM (Hs_CDK9/CyclinT): 61%
3 | N[C@H]1CC[C@@H](n2cc(COc3cccc4cnc(Nc5cccc(Cl)c5)nc34)nn2)CC1 [16a, 8-((1-((cis)-4-Aminocyclohexyl)-1H-1,2,3-triazol-4-yl)methoxy)-N-(3-chlorophenyl)quinazolin-2-amine hydrochloride] | 9 | 9 | 8 | 54 | 14 | 32 | 49 | 84 | 36 | 10 | 9 | 75 | 36 | 72 | 31 | 17 | 8 | 87 | 21 | 82 | pIC50 (HsDYRK1A; 10 µM ATP, duplicate): 5.56; pIC50 (MmCLK1; mouse CLK1 orthologue, read-out: IC50 MmCLK1): 6.66; remaining activity at 10 µM (Rn_DYRK1A): 33%; IC50 at 48 h [5]: 8 µM; IC50 at 48 h [6]: 9 µM; remaining activity at 1 µM (Hs_CDK9/CyclinT): 68%; remaining activity at 10 µM (Hs_CDK9/CyclinT): 12%
4 | CC(C)(C)OC(=O)N[C@H]1CC[C@H](n2cc(COc3cccc4cnc(Nc5cccc(Cl)c5)nc34)nn2)CC1 [18a, tert-Butyl ((trans)-4-(4-(((2-((3-chlorophenyl)amino)quinazolin-8-yl)oxy)methyl)-1H-1,2,3-triazol-1-yl)cyclohexyl)carbamate] | 16 | > 25 | > 25 | 77 | 74 | 88 | 60 | ≥ 100 | 66 | 5 | 15 | 69 | 58 | 77 | 70 | 93 | 70 | ≥ 100 | 78 | 92 | remaining activity at 10 µM (Rn_DYRK1A): ≥ 100%; IC50 at 48 h [5]: 4 µM; IC50 at 48 h [6]: 7 µM; remaining activity at 1 µM (Hs_CDK9/CyclinT): 92%; remaining activity at 10 µM (Hs_CDK9/CyclinT): 59%
